# In patent US20040019026A1, “Compounds useful for treating hypertriglyceridemia” (priority 2000, published 2004):
# Values joined by “and” are separate entries in the source; they are usually repeats but may differ in a detail not shown here. Equal values may be shown once.
# Legend:
# human patients = assay: 14-day multiple dose study, 1600 mg daily: plasma triglycerides and fasting plasma glucose (Example 1); format: in vivo
# Protocol: Twelve patients were treated with 16α-fluoro-5-androstene-17-one.
# Smoking and intake of xanthine-containing beverages or food (coffee, tea, cola, chocolate) and alcohol within 24 hours, before and during the stay in the clinical research facilities were not allowed.
# The human patients received 1600 mg of 16α-fluoro-5-androstene-17-one daily. Controls were set up so that they received 1600 mg of placebo. The triglyceride concentration in the plasma were measured pretreatment and at the end of the study. There was a significant triglyceride-lowering effect caused by the drug in the 14-day, multiple dose, study.
# In 12 patients (excluding 2 placebos) receiving 1600 mg of 16α-fluoro-5-androsten-17-one daily, 4 patients, 3 males and one person, had pretreatment triglyceride levels>200 mg/dL. In this group of 4 patients there was a highly significant reduction in triglyceride values, whereas there was no apparent effect in the 8 patients with non-elevated triglycerides. The decline in one patient was additionally quite striking. […]
# In addition, the fasting plasma glucose (FPG) levels were also measured in the patients before and after treatment. In the study, 3 of the 4 patients with elevated triglycerides had pre-treatment FPG levels>6.1 mM. The American Diabetes Association (ADA) has recently classified individuals with FPG of 6.1-6.9 mM as having impaired fasting glucose (IFG). Such individuals have 40% probability of developing ADA criteria for diabetes within 5 years.
# Syndrome X patients = assay: Randomized double-blind crossover trial in Syndrome X patients (Example 5c); format: in vivo, human; settings: 600 mg twice daily, four weeks
# Source text: Eleven patients were enrolled in the trial. The average age was 50.2±12.8 years, and there were 10 males and 1 patient enrolled. Body weight and body mass index were 87.8±17.9 kg and 27.7±3.0 kg/m^2, respectively. All patients carried a diagnosis of dyslipidemia, including elevated triglycerides, for an average of 11.7±6.4 years.
# In this randomized, double-blind, crossover study, the 11 patients underwent eligibility screening (physical exam, medical history, laboratory evaluation, PSA, TSH), followed by a six-week lead-in phase (study weeks 1-6) that included diet (AHA Step II), and discontinuation of lipid-lowering therapy. At week 4, qualifying lipid testing was performed, followed by randomization to study treatment two weeks later. Four-weeks of each of the two study treatments, fluasterone 600 mg twice daily or placebo, were then administered (weeks 7 thru 10 and 15 thru 18), separated by a 4-week washout period. At baseline, and at the end of each treatment period measurement of total serum cholesterol, triglycerides, apolipoprotein A1, and the cholesterol and triglyceride content of VLDL, LDL, and HDL was done.
# The baseline triglyceride level (mg/dL) was 509±184 and the baseline HDL level (mg/dL) was 33.0±3.5.
# [1] = system: male BKS.Cg-m+/+Leprdb mice; assay: Seminal vesicle weights, androgenic potency (Example 9); format: in vivo
# Source text: Eight week old male BKS.Cg-m^+/+Lepr^db mice were obtained from Jackson Laboratories. These mice have a point mutation in the leptin receptor gene and produce a truncated receptor with impaired signaling capacity. These animals are severely insulin resistant and manifest an uncontrolled rise in blood sugar, severe depletion of the insulin-producing beta-cells of the pancreatic islets, and death by 10 months of age. The male animals also have very low plasma testosterone levels and as a consequence undeveloped seminal vesicle glands. Administration of androgens to these mice produces an increase in seminal vesicle weights similar to that seen in castrated males. Thus these animals can be used to assess androgenic potency of various compounds.
# The mice were housed five per cage on Alphacel bedding with ad libitum access to Purina 5015 chow and acidified water. The mice were housed in the Central Animal Facility (6th floor, Pharmacy building) with twelve hours of alternating light and darkness.
# A week later, the mice were treated subcutaneously (s.c.) with 0.05 mL fluasterone (16α-fluoro-5-androsten-17-one) suspended in an Emulphor-saline vehicle to give either a dose of 5 mg/kg s.c. or 20 mg/kg s.c. or intraperitoneally (i.p.) with 0.05 mL of fluasterone suspended in an Emulphor-saline vehicle to give a dose of 5 mg/kg. The Control mice received the Emulphor-saline vehicle s.c.
# All the mice were anesthetized lightly with isoflurane before treatment with fluasterone to minimize the risk of stressing the mice while giving the s.c. dose. Their food was removed the afternoon before administration with drug and the chow was to the mice the next morning immediately after treatment. All the mice had their chow removed daily and restored just after fluasterone administration. During the week, the mice had access to chow for approximately 6½ hours, while on the weekends, the mice had approximately 4½ hours of access to chow. Mice were treated daily (weekdays and weekends).
# Mice were treated daily with fluasterone, for about one month. Then the mice were sacrificed with an overdose of CO2. The seminal vesicles of each mouse were excised, cleaned of adventitia and the coagulating glands, and any liquid was pressed out and then the glands were weighed on a Mettler AE50 balance.
# [2] = 5 mg/kg, i.p. daily about one month, individual mice
# [3] = 5 mg/kg, s.c. daily about one month, individual mice
# [4] = 20 mg/kg, s.c. daily about one month, individual mice
smiles,measurement,setting,value
"C[C@]12CCCCC1=CC[C@@H]1[C@@H]2CC[C@]2(C)C(=O)[C@H](F)C[C@@H]12 [fluasterone, 16α-fluoro-5-androsten-17-one]",Plasma triglyceride Conc.,"human patients; Elevated Triglyceride Group, Female (1), pretreatment",540 ± 42 (n = 2) mg/dL
same,Plasma triglyceride Conc.,"human patients; Elevated Triglyceride Group, Female (1), treatment 1600 mg daily, 14-day study",118 ± 19 (n = 3) mg/dL
same,Plasma triglyceride Conc.,"human patients; Elevated Triglyceride Group, Female and Male (4), pretreatment",385 ± 116 (n = 8) mg/dL
same,Plasma triglyceride Conc.,"human patients; Elevated Triglyceride Group, Female and Male (4), treatment 1600 mg daily, 14-day study",154 ± 57 (n = 11) mg/dL
same,Plasma triglyceride Conc.,"human patients; Elevated Triglyceride Group, Male (3), pretreatment",333 ± 75 (n = 6) mg/dL
same,Plasma triglyceride Conc.,"human patients; Elevated Triglyceride Group, Male (3), treatment 1600 mg daily, 14-day study",168 ± 61 (n = 8) mg/dL
same,Plasma triglyceride Conc.,"human patients; Normal Triglyceride Group (8 patients), pretreatment",106 ± 34 (n = 16) mg/dL
same,Plasma triglyceride Conc.,"human patients; Normal Triglyceride Group (8 patients), treatment 1600 mg daily, 14-day study",128 ± 77 (n = 23) mg/dL
same,FPG levels of individuals with IFG,human patients; pretreatment,6.28 ± 0.33 (6) mM
same,FPG levels of individuals with IFG,"human patients; treatment 1600 mg daily, p < 0.02",5.63 ± 0.45 (8) (p < 0.02) mM
same,"Change in HDL levels, least square means±S.E.M.","Syndrome X patients; baseline 33.0±3.5 mg/dL, p=0.068 vs placebo",−5.8±4.1
same,"Change in triglyceride levels, least square means±S.E.M.","Syndrome X patients; baseline 509±184 mg/dL, p<0.005 vs placebo",−165±76
same,Seminal Vesicles,[1]; [2],85.6 mg and 81.8 mg and 71.9 mg and 81.0 mg
same,s.v./b.w.,[1]; [2],2.1084 and 1.6166 and 1.5630 and 2.0301
same,Seminal Vesicles,"[1]; 5 mg/kg, i.p., Average, p < 0.005",80.1 p < 0.005 mg
same,s.v./b.w.,"[1]; 5 mg/kg, i.p., Average, p < 0.01",1.8295
same,Seminal Vesicles,[1]; [3],40.7 mg and 43.4 mg and 44.5 mg and 42.2 mg and 41.9 mg
same,s.v./b.w.,[1]; [3],0.8568 and 1.1361 and 0.9570 and 0.9420 and 0.9566
same,Seminal Vesicles,"[1]; 5 mg/kg, s.c., Average",42.5 mg
same,s.v./b.w.,"[1]; 5 mg/kg, s.c., Average, n.s.",0.9697 n.s.
same,Seminal Vesicles,[1]; [4],39.6 mg and 35.8 mg and 35.4 mg and 34.6 mg
same,s.v./b.w.,[1]; [4],0.8684 and 1.0000 and 0.8872 and 0.8065
same,Seminal Vesicles,"[1]; 20 mg/kg, s.c., Average, n.s.",36.4 n.s. mg
same,s.v./b.w.,"[1]; 20 mg/kg, s.c., Average, n.s.",0.8905 n.s.
same,Androgenicity,"[1]; 200 mg/kg p.o. dose, mouse",lack of androgenicity
same,Effect on seminal vesicle weights,[1]; i.p. route,highly significant increase in seminal vesicle weights
same,Effect on seminal vesicle weights,[1]; s.c. route at much higher doses,no apparent effect on seminal vesicle weights
